One assay relates to HCV replication. As to the kind of experiment: HCV replicon assay (luciferase) in ET (Huh-lucubineo-ET) cell line. In kind it is cell-based. The settings on record: Hepatitis C virus, tested at 5 μM; ET replicon cells; luciferase activity measured 48-72 hours later; relative to no compound control. In a few lines:
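Huh-lucubineo-ET cells stably carry a subgenomic replicon with a firefly luciferase–ubiquitin–neo fusion and adaptive NS3-5B mutations; they were seeded 24 h before compound addition (0.1 nM–50 μM, 0.5% DMSO). Luciferase was read 48–72 h later as % inhibition versus no-compound control, with parallel WST-1 cytotoxicity. EC50 and TC50 came from 10-point 2-fold dilutions fitted to a Hill equation.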
As usually defined, the inhibition is the share of the control response that was lost under treatment. Low values mean a weak effect, high ones a strong effect. Compound `Cn1ccnc1C(=O)N1C(C2CCOCC2)SC[C@H]1C(=O)Nc1nc(-c2ccc(C(=O)NC3CC3)cc2)cs1` (some centres unmarked) [Compound 7092, 3-(1-Methyl-1H-imidazole-2-carbonyl)-2-(tetrahydro-pyran-4-yl)-thiazolidine-4-carboxylic acid [4-(4-cyclopropylcarbamoyl-phenyl)-thiazol-2-yl]-amide] had an inhibition at 5 µM of 89.4%.

For `O=C(NC1CC1)c1ccc(-c2csc(NC(=O)[C@@H]3CSC(c4cccc(F)c4)N3C(=O)OCc3ccccc3)n2)cc1` (mixture of isomers) [Compound 7048, (R)-4-[4-(4-Cyclopropylcarbamoyl-phenyl)-thiazol-2-ylcarbamoyl]-2-(3-fluoro-phenyl)-thiazolidine-3-carboxylic acid benzyl ester], 5 µM produced 99.3% inhibition.

Consider `O=C(NCc1ccccc1)c1cccc(NC(=O)[C@@H]2CSC(c3ccncc3)N2C(=O)OCc2ccccc2)c1` (some centres unmarked) [Compound 7100, 4-(3-Benzylcarbamoyl-phenylcarbamoyl)-2-pyridin-4-yl-thiazolidine-3-carboxylic acid benzyl ester], for which the inhibition at 5 µM came to 80.1%.

`COC(=O)CCC1SC[C@@H](C(=O)Nc2nc(-c3ccc(C(=O)NC4CC4)cc3)cs2)N1C(=O)OCc1ccccc1` (some centres unmarked) [Compound 7121, 4-[4-(4-Cyclopropylcarbamoyl-phenyl)-thiazol-2-ylcarbamoyl]-2-(2-methoxycarbonyl-ethyl)-thiazolidine-3-carboxylic acid benzyl ester] displayed an inhibition at 5 µM of 99.8%.

Consider `O=C(NC1CC1)c1ccc(-c2csc(NC(=O)[C@@H]3CSC(CC4CCOCC4)N3C(=O)OCc3ccccc3)n2)cc1` (mixture of isomers) [Compound 7004, (R)-4-[4-(4-Cyclopropylcarbamoyl-phenyl)-thiazol-2-ylcarbamoyl]-2-(tetrahydro-pyran-4-ylmethyl)-thiazolidine-3-carboxylic acid benzyl ester], for which the inhibition at 5 µM was found to be 99.9%.

For `O=C(NC1CC1)c1ccc(-c2csc(NC(=O)[C@@H]3CSC(C4CCCNC4)N3C(=O)OCc3ccccc3)n2)cc1` (mixture of isomers) [Compound 7021, (R)-4-[4-(4-Cyclopropylcarbamoyl-phenyl)-thiazol-2-ylcarbamoyl]-2-piperidin-3-yl-thiazolidine-3-carboxylic acid benzyl ester], 5 µM produced 100% inhibition.

`NC(=O)c1ccc(NC(=O)[C@@H]2CSC(c3ccncc3)N2C(=O)OCc2ccccc2)cc1` (some centres unmarked) [Compound 7134, 4-(4-carbamoyl-phenylcarbamoyl)-2-pyridin-4-yl-thiazolidine-3-carboxylic acid benzyl ester] yielded an inhibition at 5 µM of 13.6%.

In the case of `O=C(NC1CC1)c1ccc(-c2csc(NC(=O)[C@@H]3CSC(c4cccc(CN5CCOCC5)c4)N3C(=O)OCc3ccccc3)n2)cc1` (mixture of isomers) [Compound 7080, 4-[4-(4-Cyclopropylcarbamoyl-phenyl)-thiazol-2-ylcarbamoyl]-2-(3-morpholin-4-ylmethyl-phenyl)-thiazolidine-3-carboxylic acid benzyl ester], testing at 5 µM gave an inhibition of 100%.

In the case of `O=C(Cc1cccc(NC(=O)[C@@H]2CSC(c3ccncc3)N2C(=O)OCc2ccccc2)c1)NCCc1ccccc1` (some centres unmarked) [Compound 7136, 4-[3-(Phenethylcarbamoyl-methyl)-phenylcarbamoyl]-2-pyridin-4-yl-thiazolidine-3-carboxylic acid benzyl ester], the inhibition at 5 µM turned out to be 90%.

Compound `O=C(NC1CC1)c1ccc(-c2csc(NC(=O)[C@@H]3CSC(C4CCNCC4)N3C(=O)OCc3ccccc3)n2)cc1` (mixture of isomers) [Compound 7042, (R)-4-[4-(4-Cyclopropylcarbamoyl-phenyl)-thiazol-2-ylcarbamoyl]-2-piperidin-4-yl-thiazolidine-3-carboxylic acid benzyl ester] gave an inhibition at 5 µM of 100%.

As to `O=C(O)CCC1SC[C@@H](C(=O)Nc2nc(-c3ccc(C(=O)NC4CC4)cc3)cs2)N1C(=O)OCc1ccccc1` (mixture of isomers) [Compound 7065, 2-(2-Carboxy-ethyl)-4-[4-(4-cyclopropylcarbamoyl-phenyl)-thiazol-2-ylcarbamoyl]-thiazolidine-3-carboxylic acid benzyl ester], at 5 µM the inhibition was 92%.

Consider `O=C(NCCN1CCOCC1)c1ccc(-c2csc(NC(=O)[C@@H]3COC4(CCOCC4)N3C(=O)OCc3ccccc3)n2)cc1` [Compound 7141, 3-{4-[4-(2-Morpholin-4-yl-ethylcarbamoyl)-phenyl]-thiazol-2-ylcarbamoyl}-1,8-dioxa-4-aza-spiro[4.5]decane-4-carboxylic acid benzyl ester], for which the inhibition at 5 µM worked out at 100%.

Consider `O=C(NCc1ccccc1)c1ccc(NC(=O)[C@@H]2CSC(c3ccncc3)N2C(=O)OCc2ccccc2)cc1` (some centres unmarked) [Compound 7075, 4-(4-Benzylcarbamoyl-phenylcarbamoyl)-2-pyridin-4-yl-thiazolidine-3-carboxylic acid benzyl ester], for which 5 µM produced 21.3% inhibition.

`CC(C)(C)OC(=O)N1C(C2CCOCC2)SC[C@H]1C(=O)Nc1nc(-c2ccc(C(=O)NC3CC3)cc2)cs1` (some centres unmarked) [Compound 7090, 4-[4-(4-Cyclopropylcarbamoyl-phenyl)-thiazol-2-ylcarbamoyl]-2-(tetrahydropyran-4-yl)-thiazolidine-3-carboxylic acid tert-butyl ester] registered an inhibition at 5 µM of 99.7%.

As for `O=C(Cc1ccc(NC(=O)[C@@H]2CSC(c3ccncc3)N2C(=O)OCc2ccccc2)cc1)NCc1ccccc1` (stereo in doubt) [Compound 7105, 4-[4-(Benzylcarbamoyl-methyl)-phenylcarbamoyl]-2-pyridin-4-yl-thiazolidine-3-carboxylic acid benzyl ester], 5 µM produced 74.2% inhibition.

Regarding `O=C(O)c1ccc(C2SC[C@@H](C(=O)Nc3nc(-c4ccc(C(=O)NC5CC5)cc4)cs3)N2C(=O)OCc2ccccc2)cc1` (mixture of isomers) [Compound 7014, (R)-2-(4-Carboxy-phenyl)-4-[4-(4-cyclopropylcarbamoyl-phenyl)-thiazol-2-ylcarbamoyl]-thiazolidine-3-carboxylic acid benzyl ester], at 5 µM the inhibition was 97.7%.

Consider `CN(C(=O)[C@@H]1CSC(c2ccncc2)N1C(=O)OCc1ccccc1)c1nc(-c2ccc(C(=O)NC3CC3)cc2)cs1` (some centres unmarked) [Compound 7106, 4-{[4-(4-Cyclopropylcarbamoyl-phenyl)-thiazol-2-yl]-methyl-carbamoyl}-2-pyridin-4-yl-thiazolidine-3-carboxylic acid benzyl ester], for which the inhibition at 5 µM turned out to be 32.9%.

With `O=C(NC1CC1)c1ccc(-c2csc(NC(=O)[C@@H]3CSC(c4ncco4)N3C(=O)OCc3ccccc3)n2)cc1` (mixture of isomers) [Compound 7056, (R)-4-[4-(4-Cyclopropylcarbamoyl-phenyl)-thiazol-2-ylcarbamoyl]-2-oxazol-2-yl-thiazolidine-3-carboxylic acid benzyl ester], at 5 µM the inhibition was 99.9%.

`O=C(Nc1ccc(CNS(=O)(=O)c2ccc(-c3ccccc3)cc2)cc1)[C@@H]1CSC(c2ccncc2)N1C(=O)OCc1ccccc1` (stereo in doubt) [Compound 7073, 4-{4-[(Biphenyl-4-sulfonylamino)-methyl]-phenylcarbamoyl}-2-pyridin-4-yl-thiazolidine-3-carboxylic acid benzyl ester]: 5 µM produced 65.3% inhibition.

As for `CNC(=O)CCC1SC[C@@H](C(=O)Nc2nc(-c3ccc(C(=O)NC4CC4)cc3)cs2)N1C(=O)OCc1ccccc1` (stereo in doubt) [Compound 7091, 4-[4-(4-Cyclopropylcarbamoyl-phenyl)-thiazol-2-ylcarbamoyl]-2-(2-methylcarbamoyl-ethyl)-thiazolidine-3-carboxylic acid benzyl ester], the inhibition at 5 µM was determined as 100%.

Take `O=C(NC1CC1)c1ccc(-c2csc(NC(=O)[C@@H]3COC(CC4CCOCC4)N3C(=O)OCc3ccccc3)n2)cc1` (stereo in doubt) [Compound 7095, 4-[4-(4-Cyclopropylcarbamoyl-phenyl)-thiazol-2-ylcarbamoyl]-2-(tetrahydropyran-4-ylmethyl)-oxazolidine-3-carboxylic acid benzyl ester]: 5 µM produced 99.9% inhibition.

Compound `CC(C)(C)C(=O)N1C(C2CCOCC2)SC[C@H]1C(=O)Nc1nc(-c2ccc(C(=O)NC3CC3)cc2)cs1` (some centres unmarked) [Compound 7070, 3-(2,2-Dimethyl-propionyl)-2-(tetrahydro-pyran-4-yl)-thiazolidine-4-carboxylic acid [4-(4-cyclopropylcarbamoyl-phenyl)-thiazol-2-yl]-amide] registered an inhibition at 5 µM of 96.1%.

For the compound `O=C(O)c1cccc(C2SC[C@@H](C(=O)Nc3nc(-c4ccc(C(=O)NC5CC5)cc4)cs3)N2C(=O)OCc2ccccc2)c1` (mixture of isomers) [Compound 7034, (R)-2-(3-Carboxy-phenyl)-4-[4-(4-cyclopropylcarbamoyl-phenyl)-thiazol-2-ylcarbamoyl]-thiazolidine-3-carboxylic acid benzyl ester], the inhibition at 5 µM worked out at 98.7%.

As to `O=C(NC1CC1)c1ccc(-c2csc(NC(=O)[C@@H]3CSC(C4CCOCC4)N3C(=O)C3CC3)n2)cc1` (some centres unmarked) [Compound 7085, 3-Cyclopropanecarbonyl-2-(tetrahydro-pyran-4-yl)-thiazolidine-4-carboxylic acid [4-(4-cyclopropylcarbamoyl-phenyl)-thiazol-2-yl]-amide], the inhibition at 5 µM is 99.6%.

`C=C1C[C@@H](C(=O)Nc2nc(-c3ccc(C(=O)NC4CC4)cc3)cs2)N(C(=O)OC(C)(C)C)C1` [Compound 7040, (S)-2-[4-(4-Cyclopropylcarbamoyl-phenyl)-thiazol-2-ylcarbamoyl]-4-methylene-pyrrolidine-1-carboxylic acid tert-butyl ester] registered an inhibition at 5 µM of 89.9%.

Staying with this assay, now noted: tested at 5 μM; ET replicon cells; luciferase activity measured 48-72 hours later; relative to no compound control; 5 µM.
By % inhibition is commonly meant the share of the control response that was lost under treatment. A higher % inhibition goes with a response far below the control. Turning to `CC(C)(C)OC(=O)N1C(c2cccnc2)SC[C@H]1C(=O)Nc1nc(-c2ccc(C(=O)NC3CC3)cc2)cs1` (single isomer, unassigned) [Compound 7055, 4-[4-(4-Cyclopropylcarbamoyl-phenyl)-thiazol-2-ylcarbamoyl]-2-pyridin-3-yl-thiazolidine-3-carboxylic acid tert-butyl ester], the “% inhibition at 5 μM” value was 99.1%.

The values are drawn from patent US20080181866A1, “Amido Anti-viral Compounds” (Genelabs Technologies, Inc., priority 2006, published 2008).
